Reference: PubChem BioAssay (NCI)
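Each compound was tested at five concentrations against cells in 96-well plates for 48 hours. GI50: concentration for 50% inhibition of growth. TGI denotes the concentration required for complete inhibition of growth.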

Columns and labels:
Test in all cases: DTP human tumour cell line panel, 48 h
[1] = tested on: 786-0 renal
[2] = tested on: K-562 leukemia
[3] = tested on: HT29 colon
[4] = tested on: IGROV1 ovarian
[5] = tested on: COLO 205 colon
[6] = tested on: NCI-H460 lung
[7] = tested on: SNB-19 CNS
[8] = tested on: HCT-15 colon
[9] = tested on: NCI-H522 lung
[10] = tested on: UACC-62 melanoma
[11] = tested on: SK-MEL-2 melanoma
[12] = tested on: KM12 colon
[13] = tested on: LOX IMVI melanoma
[14] = tested on: A498 renal
[15] = tested on: MOLT-4 leukemia
[16] = tested on: HOP-92 NSCLC
[17] = tested on: OVCAR-8 ovarian
[18] = tested on: SF-268 CNS
[19] = tested on: PC-3 prostate
[20] = tested on: NCI/ADR-RES ovarian
[21] = tested on: UACC-257 melanoma
[22] = tested on: HOP-62 NSCLC
[23] = tested on: MALME-3M melanoma
[24] = tested on: SN12C renal
[25] = tested on: NCI-H23 lung
[26] = tested on: SK-MEL-5 melanoma
[27] = tested on: ACHN renal
[28] = tested on: TK-10 renal
[29] = tested on: RXF 393 renal
[30] = tested on: SF-539 CNS
[31] = tested on: UO-31 renal
[32] = tested on: A549 NSCLC
[33] = tested on: HCC-2998 colon
[34] = tested on: BT-549 breast
[35] = tested on: RPMI-8226 leukemia
[36] = tested on: OVCAR-5 ovarian
[37] = tested on: OVCAR-3 ovarian
[38] = tested on: SK-OV-3 ovarian
[39] = tested on: HCT-116 colon
[40] = tested on: OVCAR-4 ovarian
[41] = tested on: CAKI-1 renal
[42] = tested on: EKVX NSCLC
[43] = tested on: SK-MEL-28 melanoma
[44] = tested on: SW-620 colon
[45] = tested on: MDA-MB-231 breast
[46] = tested on: CCRF-CEM leukemia
[47] = tested on: U251 CNS
[48] = tested on: DU-145 prostate
[49] = tested on: NCI-H226 lung
[50] = tested on: MDA-MB-435
[51] = tested on: HS 578T breast
[52] = tested on: MCF7 breast
[53] = tested on: T-47D breast
[54] = tested on: SF-295 CNS

Question: How did the GI50 [1] turn out when CCOC(=O)Cc1csc(/N=C2\NC(=O)/C(=C3\C(=O)N(C)c4ccccc43)S2)n1 was run?
Answer: The GI50 was 28 µM.

Question: And the TGI [1]?
Answer: The TGI was 72.5 µM.

Question: And the GI50 [2]?
Answer: The GI50 was 36 µM.

Question: What about the TGI [2] of the same molecule?
Answer: The TGI was over 100 µM.

Question: What about the GI50 [3] of the same molecule?
Answer: The GI50 was 44.5 µM.

Question: And the TGI [3]?
Answer: The TGI was over 100 µM.

Question: And the GI50 [4]?
Answer: Its GI50 is 20.6 µM.

Question: And the TGI [4]?
Answer: The TGI was 69.2 µM.

Question: And the GI50 [5]?
Answer: Its GI50 is 48.7 µM.

Question: What about the TGI [5] of the same molecule?
Answer: The TGI was over 100 µM.

Question: And the GI50 [6]?
Answer: Its GI50 is 20.7 µM.

Question: What about the TGI [6] of the same molecule?
Answer: Its TGI is 55.9 µM.

Question: And the GI50 [7]?
Answer: The GI50 was 52.5 µM.

Question: And the TGI [7]?
Answer: Its TGI is over 100 µM.

Question: And the GI50 [8]?
Answer: Its GI50 is 39.7 µM.

Question: And the TGI [8]?
Answer: Its TGI is over 100 µM.

Question: And the GI50 [9]?
Answer: Its GI50 is 24.8 µM.

Question: And the TGI [9]?
Answer: Its TGI is 93.3 µM.

Question: What about the GI50 [10] of the same molecule?
Answer: Its GI50 is 26.1 µM.

Question: What about the TGI [10] of the same molecule?
Answer: Its TGI is 83.6 µM.

Question: And the GI50 [11]?
Answer: Its GI50 is 24.2 µM.

Question: What about the TGI [11] of the same molecule?
Answer: Its TGI is over 100 µM.

Question: And the GI50 [12]?
Answer: The GI50 was 23.3 µM.

Question: What about the TGI [12] of the same molecule?
Answer: Its TGI is 83.8 µM.

Question: What about the GI50 [13] of the same molecule?
Answer: Its GI50 is 34.6 µM.

Question: What about the TGI [13] of the same molecule?
Answer: The TGI was over 100 µM.

Question: And the GI50 [14]?
Answer: Its GI50 is 46.8 µM.

Question: What about the TGI [14] of the same molecule?
Answer: Its TGI is over 100 µM.

Question: What about the GI50 [15] of the same molecule?
Answer: The GI50 was 40.3 µM.

Question: What about the TGI [15] of the same molecule?
Answer: Its TGI is over 100 µM.

Question: And the GI50 [16]?
Answer: The GI50 was 52.3 µM.

Question: And the TGI [16]?
Answer: The TGI was over 100 µM.

Question: And the GI50 [17]?
Answer: Its GI50 is 65.3 µM.

Question: What about the TGI [17] of the same molecule?
Answer: The TGI was over 100 µM.

Question: And the GI50 [18]?
Answer: The GI50 was 45.2 µM.

Question: What about the TGI [18] of the same molecule?
Answer: The TGI was over 100 µM.

Question: And the GI50 [19]?
Answer: The GI50 was 34.1 µM.

Question: What about the TGI [19] of the same molecule?
Answer: The TGI was over 100 µM.

Question: And the GI50 [20]?
Answer: The GI50 was 49.6 µM.

Question: And the TGI [20]?
Answer: The TGI was over 100 µM.

Question: What about the GI50 [21] of the same molecule?
Answer: Its GI50 is 79.1 µM.

Question: What about the TGI [21] of the same molecule?
Answer: Its TGI is over 100 µM.

Question: And the GI50 [22]?
Answer: Its GI50 is 30.1 µM.

Question: What about the TGI [22] of the same molecule?
Answer: The TGI was 87.9 µM.

Question: What about the GI50 [23] of the same molecule?
Answer: Its GI50 is 21.8 µM.

Question: And the TGI [23]?
Answer: Its TGI is 95.2 µM.

Question: What about the GI50 [24] of the same molecule?
Answer: The GI50 was 31 µM.

Question: What about the TGI [24] of the same molecule?
Answer: The TGI was over 100 µM.

Question: What about the GI50 [25] of the same molecule?
Answer: Its GI50 is 48 µM.

Question: What about the TGI [25] of the same molecule?
Answer: The TGI was over 100 µM.

Question: What about the GI50 [26] of the same molecule?
Answer: The GI50 was 38 µM.

Question: And the TGI [26]?
Answer: The TGI was over 100 µM.

Question: And the GI50 [27]?
Answer: Its GI50 is 35.9 µM.

Question: And the TGI [27]?
Answer: The TGI was over 100 µM.

Question: What about the GI50 [28] of the same molecule?
Answer: Its GI50 is 31.9 µM.

Question: And the TGI [28]?
Answer: The TGI was over 100 µM.

Question: What about the GI50 [29] of the same molecule?
Answer: The GI50 was 73.3 µM.

Question: What about the TGI [29] of the same molecule?
Answer: The TGI was over 100 µM.

Question: What about the GI50 [30] of the same molecule?
Answer: The GI50 was 43.8 µM.

Question: What about the TGI [30] of the same molecule?
Answer: Its TGI is over 100 µM.

Question: And the GI50 [31]?
Answer: The GI50 was 35.6 µM.

Question: And the TGI [31]?
Answer: The TGI was over 100 µM.

Question: And the GI50 [32]?
Answer: The GI50 was 36.5 µM.

Question: What about the TGI [32] of the same molecule?
Answer: The TGI was over 100 µM.

Question: And the GI50 [33]?
Answer: The GI50 was 46.1 µM.

Question: What about the TGI [33] of the same molecule?
Answer: The TGI was over 100 µM.

Question: What about the GI50 [34] of the same molecule?
Answer: The GI50 was 48.4 µM.

Question: What about the TGI [34] of the same molecule?
Answer: Its TGI is over 100 µM.

Question: What about the GI50 [35] of the same molecule?
Answer: The GI50 was 32.4 µM.

Question: And the TGI [35]?
Answer: Its TGI is over 100 µM.

Question: And the GI50 [36]?
Answer: The GI50 was over 100 µM.

Question: And the TGI [36]?
Answer: Its TGI is over 100 µM.

Question: What about the GI50 [37] of the same molecule?
Answer: Its GI50 is 28.2 µM.

Question: And the TGI [37]?
Answer: The TGI was 72.7 µM.

Question: And the GI50 [38]?
Answer: Its GI50 is over 100 µM.

Question: And the TGI [38]?
Answer: Its TGI is over 100 µM.

Question: And the GI50 [39]?
Answer: The GI50 was 28.1 µM.

Question: What about the TGI [39] of the same molecule?
Answer: Its TGI is 60.1 µM.

Question: What about the GI50 [40] of the same molecule?
Answer: The GI50 was 35.2 µM.

Question: What about the TGI [40] of the same molecule?
Answer: The TGI was over 100 µM.

Question: And the GI50 [41]?
Answer: The GI50 was 23.5 µM.

Question: What about the TGI [41] of the same molecule?
Answer: Its TGI is 67.9 µM.

Question: And the GI50 [42]?
Answer: Its GI50 is 44.1 µM.

Question: What about the TGI [42] of the same molecule?
Answer: Its TGI is over 100 µM.

Question: What about the GI50 [43] of the same molecule?
Answer: Its GI50 is 80.3 µM.

Question: And the TGI [43]?
Answer: The TGI was over 100 µM.

Question: What about the GI50 [44] of the same molecule?
Answer: The GI50 was 52.1 µM.

Question: And the TGI [44]?
Answer: The TGI was over 100 µM.

Question: And the GI50 [45]?
Answer: Its GI50 is 37.4 µM.

Question: What about the TGI [45] of the same molecule?
Answer: Its TGI is over 100 µM.

Question: And the GI50 [46]?
Answer: Its GI50 is 26.1 µM.

Question: And the TGI [46]?
Answer: Its TGI is 61.9 µM.

Question: What about the GI50 [47] of the same molecule?
Answer: The GI50 was 33.6 µM.

Question: What about the TGI [47] of the same molecule?
Answer: The TGI was over 100 µM.

Question: And the GI50 [48]?
Answer: The GI50 was 41.4 µM.

Question: What about the TGI [48] of the same molecule?
Answer: The TGI was over 100 µM.

Question: And the GI50 [49]?
Answer: Its GI50 is 28.6 µM.

Question: What about the TGI [49] of the same molecule?
Answer: Its TGI is over 100 µM.

Question: And the GI50 [50]?
Answer: Its GI50 is 36.6 µM.

Question: And the TGI [50]?
Answer: Its TGI is over 100 µM.

Question: What about the GI50 [51] of the same molecule?
Answer: Its GI50 is 66.7 µM.

Question: And the TGI [51]?
Answer: The TGI was over 100 µM.

Question: What about the GI50 [52] of the same molecule?
Answer: The GI50 was 46.8 µM.

Question: And the TGI [52]?
Answer: Its TGI is over 100 µM.

Question: What about the GI50 [53] of the same molecule?
Answer: Its GI50 is 81.5 µM.

Question: What about the TGI [53] of the same molecule?
Answer: The TGI was over 100 µM.

Question: What about the GI50 [54] of the same molecule?
Answer: The GI50 was 29.8 µM.

Question: What about the TGI [54] of the same molecule?
Answer: The TGI was 87 µM.
